Values quoted from earlier work, collected in patent US4933274A, “Process for detecting genetic susceptibility to cancer” (United States of America Represented by the Secretary of …, priority 1988, dated 1990).

What was measured:
[1] = tested on: x-irradiated XP-A cells; details: ara-C added to x-irradiated XP-A (xeroderma pigmentosum group A) cells
[2] = tested on: normal cells; details: ara-C 50 μM added to normal cells following irradiation

In the case of Nc1ccn([C@@H]2O[C@H](CO)[C@@H](O)[C@@H]2O)c(=O)n1 [ara-C, β-cytosine arabinoside], the chromatid damage [1] is given as “no effect on chromatid damage” and the “frequency of chromatid damage” value [2] is given as “enhances the frequency of chromatid damage to the level observed in the irradiated cancer-prone cells”.
